The structures appear in SMILES notation. Where a name gives a salt, the structure may show the parent alone. Read-outs that look alike come from different tables or passages of the source.

The test system of assay [1] is T-47D cells. As to the kind of experiment: Caspase cascade activation / induction of apoptosis in T-47D cells (fluorogenic N-(Ac-DEVD)-N'-ethoxycarbonyl-R110 substrate). The class given is cell-based, human. The note with it: Homo sapiens, T47D.
Assay [2] addresses tubulin (Bos taurus, UniProt P81947+Q6B856). As to the kind of experiment: Inhibition of tubulin polymerization (DAPI fluorescence). Format: biochemical. The note with it: MAP-rich tubulin, 30 minutes at 37° C. How it is done:
Lyophilized tubulin (Cytoskeleton #ML113, 1 mg, MAP-rich) was assayed for the effect of the test compound on tubulin polymerization as measured by change in fluorescence for 4′,6-diamidino-2-phenylindole (DAPI) (Barron, D. M. et al. Analytical Biochem., 2003, 315, 49-56). 1 μl of serial dilutions of each test compound (from 100×DMSO stock) was added in 96 well plate format and preincubated for 30 minutes with 94 ul of the non-GTP supplemented tubulin supernatant. 5 μl of DAPI/GTP solution was added to initiate polymerization and incubated for 30 minutes at 37° C. Fluorescence was read with excitation 350 nm, emission wavelength 485 nm on a Tecan Spectraflour Plus. Polymerized tubulin (DMSO and with the tubulin stabilizer Taxol® (paclitaxel)) gives a higher DAPI fluorescence as compared to non-polymerized tubulin (vinblastine and colchicine used to determine baseline).

Assay [3] deals with P388 murine leukemia cell line. The assay is described as follows: P388 cytotoxicity (ATP-Lite, 72 hours). Particulars: Mus musculus, P388, 72 hours. Format: cell-based. The procedure:
A P388 murine leukemia cell line was obtained from NCI, Frederick, Md. P388 cells were cultured in RPMI-1640 supplemented with 10% fetal bovine serum, 2 mM Glutamax, 1 mM sodium pyruvate, 0.1 mM non-essential amino acids and 10 mM HEPES. Cells were grown at 37° C. in a humidified 5% CO2 atmosphere. Exponentially growing P388 cells were plated at 5,000 cells/well in a 96-well flat-bottomed microtiter plate (Corning, Costar #3595). […] Cellular viability was determined 72 hours later by measuring intracellular ATP with ATP-Lite assay system. The effect of compounds on cell viability was calculated by comparing the ATP levels of cells exposed to test compound with those of cells exposed to DMSO. […] Data was analyzed by Prism software (GraphPad; San Diego, Calif.) by fitting it to a sigmoidal dose response curve.

The mark [4] stands for this setting: T-47D, 24 hr, read-out: T-47D (24 hr) EC50.
Where [5] appears, read: Table III, time not given, repeats 24 hr or 48 hr T-47D values of Table I, read-out: Caspase activation (EC50 nM).

tubulin, sequence (P81947 whole entry): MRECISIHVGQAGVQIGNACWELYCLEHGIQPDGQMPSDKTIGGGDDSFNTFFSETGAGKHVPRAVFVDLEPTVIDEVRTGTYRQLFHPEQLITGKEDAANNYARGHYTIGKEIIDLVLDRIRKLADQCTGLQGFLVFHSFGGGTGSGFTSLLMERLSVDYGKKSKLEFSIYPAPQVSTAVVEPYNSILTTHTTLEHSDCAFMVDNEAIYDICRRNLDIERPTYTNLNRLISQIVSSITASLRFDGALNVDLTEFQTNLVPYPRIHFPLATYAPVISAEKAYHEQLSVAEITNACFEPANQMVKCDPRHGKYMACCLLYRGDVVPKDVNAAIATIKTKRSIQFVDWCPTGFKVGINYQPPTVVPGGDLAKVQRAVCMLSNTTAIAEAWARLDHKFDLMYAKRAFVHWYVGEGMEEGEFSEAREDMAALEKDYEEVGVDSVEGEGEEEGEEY
tubulin, sequence (Q6B856 whole entry): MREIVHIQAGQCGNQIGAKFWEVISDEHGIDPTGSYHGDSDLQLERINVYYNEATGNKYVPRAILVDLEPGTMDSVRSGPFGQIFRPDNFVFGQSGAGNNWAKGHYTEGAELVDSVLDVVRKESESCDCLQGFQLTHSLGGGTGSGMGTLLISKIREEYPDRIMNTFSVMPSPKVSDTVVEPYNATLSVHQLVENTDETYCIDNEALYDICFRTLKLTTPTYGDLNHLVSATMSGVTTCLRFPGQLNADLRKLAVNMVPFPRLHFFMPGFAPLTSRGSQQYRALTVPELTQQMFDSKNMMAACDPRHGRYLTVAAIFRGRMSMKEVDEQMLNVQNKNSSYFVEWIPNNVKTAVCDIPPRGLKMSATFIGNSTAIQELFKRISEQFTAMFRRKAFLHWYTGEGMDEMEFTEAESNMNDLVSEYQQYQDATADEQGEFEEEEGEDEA

Regarding `Cc1ccc(N(C)c2nc(Cl)nc3ccccc23)cc1` [Example 2, (2-Chloro-quinazolin-4-yl)-(4-methyl-phenyl)-methyl-amine], the half-maximal effective concentration (EC50) in assay [1] (setting [4]) and in assay [1] (setting [5]) was 31 nM in each case. It took 3 µM to reach half-maximal inhibition in assay [2] (IC50). With `CN(c1ccccc1)c1nc(Cl)nc2ccccc12` [Example 6, (2-Chloro-quinazolin-4-yl)-phenyl-methyl-amine], the EC50 – broadly, the midpoint of the concentration-response curve – in assay [1] (24 h, read-out: T-47D (24 hr) EC50 (nM)) stood at 219 nM; in assay [1] (read-out: Caspase activation (EC50 nM)), 219 nM. Also, the IC50 (in general, the point on the concentration scale where inhibition reaches its midpoint) in assay [2] is 4 µM. `COc1ccc(N(C)c2nc(NC/C=C(\C)CCC=C(C)C)nc3ccccc23)cc1` [Example 13, N^2-(3,7-Dimethyl-octa-2,6-dienyl)-N^4-(4-methoxy-phenyl)-N^4-methyl-quinazoline-2,4-diamine]: the concentration for a half-maximal effect (EC50) in assay [1] (setting [4]) and in assay [1] (setting [5]) was 260 nM in each case. This compound came in with an IC50 in assay [2] of 6 µM. As to `COc1ccc(N(C)c2nc(Cl)nc3cc(OC)c(OC)cc23)cc1` [Example 20, (2-Chloro-6,7-dimethoxyquinazolin-4-yl)-(4-methoxy-phenyl)-methyl-amine], the 50% effective concentration (EC50) in assay [1] (setting [4]) and in assay [1] (setting [5]) was 161 nM each time. In assay [2], this compound had an IC50 of 3 µM. `COc1ccc(N(C)c2ncnc3ccccc23)cc1` [Example 34, (4-Methoxy-phenyl)-methyl-quinazolin-4-yl-amine] showed an IC50 in assay [2] of 1 µM. In the case of `CCOc1ccc(N(C)c2nc(CN)nc3cccc(F)c23)c(F)c1` [Example 250, (2-Aminomethyl-5-fluoro-quinazolin-4-yl)-(4-ethoxy-2-fluoro-phenyl)-methyl-amine], in assay [3], the midpoint of inhibition, the IC50, lay at 0.022 µM. For the compound `COc1c(Cl)cc(N(C)c2nc(CCl)nc3ccccc23)cc1Cl` [Example 251, (2-Chloromethyl-quinazolin-4-yl)-(3,5-dichloro-4-methoxy-phenyl)-methyl-amine], inhibition in assay [3] was half-maximal at 2.08 µM (IC50). The compound `COc1ccc(N(C)c2nc(CN3CCCCC3=O)nc3ccccc23)cc1` [Example 252, 1-{4-[(4-Methoxy-phenyl)-methyl-amino]-quinazolin-2-ylmethyl}-piperidin-2-one] yielded an IC50 in assay [3] of 1 µM. Compound `CCOc1ccc(N(C)c2nc(C)nc3ccccc23)cc1F` [Example 253, (4-Ethoxy-3-fluoro-phenyl)-methyl-(2-methyl-quinazolin-4-yl)-amine] showed an IC50 in assay [3] of 0.003 µM. This IC50 lies about 330-fold lower than the previous one. Still for that read-out and setting: in the case of `COc1c(Cl)cc(N(C)c2nc(CN)nc3ccccc23)cc1Cl` [Example 254, (2-Aminomethyl-quinazolin-4-yl)-(3,5-dichloro-4-methoxy-phenyl)-methyl-amine bis(hydrochloride)] it was 5.2 µM; in that of `COc1ccc(N(C)c2nc(CN3CCCC3=O)nc3ccccc23)cc1` [Example 255, 1-{4-[(4-Methoxy-phenyl)-methyl-amino]-quinazolin-2-ylmethyl}-pyrrolidin-2-one], 0.61 µM. On the same count and under the same terms, in the case of `COc1ccc(N(C)c2nc(CNCCCO)nc3ccccc23)cc1` [Example 256, 3-({4-[(4-Methoxy-phenyl)-methyl-amino]-quinazolin-2-ylmethyl}-amino)-propan-1-ol] it was 1.8 µM; in that of `CCOc1c(Cl)cc(N(C)c2nc(CCl)nc3ccccc23)cc1Cl` [Example 257, (2-Chloromethyl-quinazolin-4-yl)-(3,5-dichloro-4-ethoxy-phenyl)-methyl-amine], 2.4 µM. The compound `CCOc1ccc(N(C)c2nc(CCl)nc3ccccc23)cc1Cl` [Example 258, (3-Chloro-4-ethoxy-phenyl)-(2-chloromethyl-quinazolin-4-yl)-methyl-amine] displayed an IC50 in assay [3] of 0.015 µM. On to `COc1ccc(N(C)c2nc(C)nc3ccc(CN)cc23)cc1` [Example 259, (6-Aminomethyl-2-methyl-quinazolin-4-yl)-(4-methoxy-phenyl)-methyl-amine], for which, in assay [3], the IC50 was 0.773 µM. `CCOc1ccc(N(C)c2nc(CN3C(=O)c4ccccc4C3=O)nc3ccccc23)cc1Cl` [Example 260, 2-{4-[(3-Chloro-4-ethoxy-phenyl)-methyl-amino]-quinazolin-2-ylmethyl}-isoindole-1,3-dione] displayed an IC50 in assay [3] of 0.469 µM. On to `CCOc1ccc(N(C)c2nc(CN)nc3ccccc23)cc1Cl` [Example 261], for which the concentration for half-maximal inhibition (IC50) in assay [3] worked out at 0.009 µM.

The values are drawn from US20130029942A1, “COMPOUNDS AND THERAPEUTICAL USES THEREOF” (Myrexis, Inc., priority 2003, published 2013).
